For one data set, the system named is M. tuberculosis H37Ra. Kind of data set: microbe, parasite or virus in culture. Format: cell-based, Mycobacterium tuberculosis.
The next data set concerns M. tuberculosis H37Rv. Briefly: microbe, parasite or virus in culture. The conditions noted are these: for SI (CC50/MIC): ratio of CC50 for L929 fibroblasts to MIC for strain H37Rv. Format: cell-based, Mycobacterium tuberculosis.
The subject of data set [1] is Murine Raw 264.7 macrophages. Kind of data set: in vitro. Format: cell-based. The conditions noted are these: RAW, MTT assay (Table S1). The method, then: (§1) A549 human pulmonary epithelial cells (KCLB 10185), human embryonic kidney (HEK) 293 cells (KCLB 21573), human THP-1 leukemia cells (KCLB 40202), human neuroblastoma SH-SY5Y cells (KCLB 22266), Murine Raw 264.7 macrophages (KCLB 40071), and L929 murine fibroblasts (KCLB 10001) were purchased from the KCLB (Seoul, Korea). Cytotoxicity testing was performed using the MTT assay and the WST-1 cell viability assay as previously described.
In general terms: Tetrazolium assays rely on reduction of a dye to a coloured formazan, in cell work by metabolically active cells.

The next data set relates to L929 murine fibroblasts. Briefly: in vitro. Format: cell-based. To be noted: L929, MTT assay (Table S1). The method, then: as §1
The next data set deals with A549 cell line. To be noted: cited from earlier work.
For a further data set, the system named is M. bolletii. Kind of data set: microbe, parasite or virus in culture. Format: cell-based, Mycobacterium bolletii. To be noted: Mycobacteroides abscessus.
A further data set deals with M. aubagnense. Briefly: microbe, parasite or virus in culture. Format: cell-based, Mycobacterium aubagnense. The conditions noted are these: Mycolicibacterium aubagnense.
A further data set concerns M. chitae. Kind of data set: microbe, parasite or virus in culture. Format: cell-based, Mycobacterium chitae. The conditions noted are these: Mycolicibacterium chitae.
The next data set deals with M. goodie. Kind of data set: microbe, parasite or virus in culture. Format: cell-based. To be noted: Mycobacterium.
Another data set relates to M. smegmatis. Kind of data set: microbe, parasite or virus in culture. Format: cell-based, Mycobacterium smegmatis. The conditions noted are these: Mycolicibacterium smegmatis.
The subject of the next data set is M. kansasii. Briefly: microbe, parasite or virus in culture. Format: cell-based. To be noted: Mycobacterium kansasii.
The subject of a further data set is M. arupense. Briefly: microbe, parasite or virus in culture. The conditions noted are these: Mycolicibacter arupensis. Format: cell-based, Mycobacterium arupense.
The next data set has as its system M. avium. Kind of data set: microbe, parasite or virus in culture. Format: cell-based. To be noted: Mycobacterium avium.
Another data set deals with M. bovis. Briefly: microbe, parasite or virus in culture. Format: cell-based. The conditions noted are these: Mycobacterium tuberculosis variant bovis.
For the next data set, the system named is M. peregrinum. Briefly: microbe, parasite or virus in culture. Format: cell-based, Mycobacterium peregrinum. The conditions noted are these: Mycolicibacterium peregrinum.
The test system of a further data set is M. szulgai. Briefly: microbe, parasite or virus in culture. To be noted: Mycobacterium szulgai. Format: cell-based.
Another data set concerns M. gilvum. Briefly: microbe, parasite or virus in culture. Format: cell-based, Mycobacterium gilvum. The conditions noted are these: Mycolicibacterium gilvum.
The test system of a further data set is M. massiliense. Briefly: microbe, parasite or virus in culture. Format: cell-based, Mycobacterium massiliense. The conditions noted are these: Mycobacteroides abscessus.
The subject of another data set is M. heraklionease. Briefly: microbe, parasite or virus in culture. Format: cell-based. The conditions noted are these: Mycobacterium.
A further data set has as its system M. conceptionense. Kind of data set: microbe, parasite or virus in culture. To be noted: Mycolicibacterium senegalense. Format: cell-based, Mycobacterium conceptionense.
For another data set, the system named is M. gordonae. Briefly: microbe, parasite or virus in culture. Format: cell-based. To be noted: Mycobacterium gordonae.
The next data set concerns M. xenopi. Briefly: microbe, parasite or virus in culture. Format: cell-based. To be noted: Mycobacterium xenopi.
A further data set concerns M. phlei. Kind of data set: microbe, parasite or virus in culture. Format: cell-based, Mycobacterium phlei. To be noted: Mycolicibacterium phlei.
Another data set concerns M. phocaicum. Kind of data set: microbe, parasite or virus in culture. Format: cell-based, Mycobacterium phocaicum. The conditions noted are these: Mycolicibacterium phocaicum.
The next data set concerns M. neoaurum. Kind of data set: microbe, parasite or virus in culture. Format: cell-based, Mycobacterium neoaurum. To be noted: Mycolicibacterium neoaurum.
The test system of another data set is M. intracellulare. Kind of data set: microbe, parasite or virus in culture. The conditions noted are these: Mycobacterium intracellulare. Format: cell-based.
The next data set concerns M. marinum. Briefly: microbe, parasite or virus in culture. Format: cell-based. To be noted: Mycobacterium marinum.
In the next data set the test system is M. fortuitum. Briefly: microbe, parasite or virus in culture. Format: cell-based, Mycobacterium fortuitum. To be noted: Mycolicibacterium fortuitum.
Another data set concerns M. abscessus. Kind of data set: microbe, parasite or virus in culture. Format: cell-based, Mycobacterium abscessus. The conditions noted are these: Mycobacteroides abscessus.
In a further data set the test system is M. kyorinense. Briefly: microbe, parasite or virus in culture. Format: cell-based. The conditions noted are these: Mycobacterium kyorinense.
Another data set relates to M. colombiense. Kind of data set: microbe, parasite or virus in culture. The conditions noted are these: Mycobacterium colombiense. Format: cell-based.
In data set [2] the test system is clinically isolated MDR, XDR, and TDR M. tuberculosis strains. Briefly: microbe, parasite or virus in culture. Format: cell-based. The conditions noted are these: Mycobacterium tuberculosis.
The next data set relates to M. marseiliense. Briefly: microbe, parasite or virus in culture. Format: cell-based. To be noted: Mycobacterium.

The text below walks through data of article PMC9154192 (PLoS Biology, 2022).

Structures are written as SMILES. In brackets after ≈: the same amount, converted by molar mass. Like-named read-outs stand apart in the source and are kept apart here.

On to `COC(=O)/C(=C/c1ccc(OCc2ccccc2)cc1)c1ccc(OC)c(OC)c1` [DPGA3], for which the MIC against M. tuberculosis H37Ra and with M. tuberculosis H37Rv was 3.1 µg/mL (≈ 7.66 µM) each time. Besides, in the data set with M. tuberculosis H37Rv, the “SI (CC50/MIC)” value is on record as above 32.2. The half-maximal cytotoxic concentration (CC50) (in [1]; in the data set on L929 murine fibroblasts) was above 100 µg/mL each time.
In the case of `COc1ccc2c3c(c4cc(OC)c(OC)cc4c2c1)CN1CCC[C@H]1C3` [DPG, deoxypergularinine], the CC50 (in general, the concentration that lowers cell viability or growth by half) in the data set on A549 cell line was 18.7 µg/mL (≈ 51.5 µM).
Regarding `CCCCOc1ccc(/C=C(/C(=O)O)c2ccc(OC)c(OC)c2)cc1` [DPGA8], the MIC against M. tuberculosis H37Ra and in the data set on M. tuberculosis H37Rv was above 100 µg/mL in each case. Moreover, in the data set on M. tuberculosis H37Rv, the “SI (CC50/MIC)” value is on record as below 0.9. For the same molecule, the CC50 in data set [1] was above 100 µg/mL; in the data set with L929 murine fibroblasts, 89.5 µg/mL (≈ 251 µM).
As to `COc1ccc(/C(=C\c2ccc(OCc3ccccc3)cc2)C(=O)O)cc1OC` [DPGA2], the MIC is 100 µg/mL (≈ 256 µM) against M. tuberculosis H37Ra and above 100 µg/mL with M. tuberculosis H37Rv. Moreover, the CC50 (in [1]; in the data set with L929 murine fibroblasts) was above 100 µg/mL throughout.
As for `NC(=O)c1cnccn1` [PZA, pyrazinamide], the MIC in the data set on M. bolletii, in the data set with M. aubagnense, in the data set with M. chitae, against M. goodie, against M. smegmatis and in the data set with M. kansasii was above 100 µg/mL throughout. Moreover, the MIC in the data set on M. arupense, against M. avium, against M. bovis, with M. peregrinum, with M. szulgai and with M. gilvum was above 100 µg/mL throughout. For the same molecule, the MIC in the data set with M. massiliense, with M. heraklionease, in the data set with M. conceptionense, against M. gordonae, with M. xenopi and against M. phlei was above 100 µg/mL each time. Besides, the MIC against M. phocaicum, against M. neoaurum, in the data set on M. intracellulare, with M. marinum, against M. fortuitum and in the data set on M. abscessus was above 100 µg/mL in each case. Besides, the MIC was above 100 µg/mL against M. kyorinense; above 100 µg/mL with M. tuberculosis H37Rv (Mycobacterium tuberculosis, H37RV, read-out: MIC); above 100 µg/mL against M. colombiense; above 100 µg/mL in [2]; above 100 µg/mL in data set [2] (TDR-1); above 100 µg/mL in data set [2] (TDR-2). For the same molecule, the MIC (in data set [2] (TDR-3); with M. marseiliense) was above 100 µg/mL throughout.
Regarding `CCCCOc1ccc(/C=C(/C(=O)OC)c2ccc(OC)c(OC)c2)cc1` [DPGA9], the MIC with M. tuberculosis H37Ra and with M. tuberculosis H37Rv was 25 µg/mL (≈ 67.5 µM) throughout. Further, the “SI (CC50/MIC)” value with M. tuberculosis H37Rv was above 4.0. The CC50 (in [1]; with L929 murine fibroblasts) was above 100 µg/mL in each case.
